Laboratory results: patent US9051322B2, “Process for the production of a pemetrexed salt” (SCINOPHARM TAIWAN, LTD., priority 2011, dated 2015)
Where a name gives a salt, the structure may show the parent alone.

Assay: Stability of pemetrexed disodium in sodium hydroxide at different temperature (impurity content by HPLC)
Type: physicochemical
Experimental: In comparison with the prior art, the embodiments of the present invention have the following advantages: • 1) The reaction of the compound of formula (II) or salt thereof with an aqueous basic solution is preferably conducted at a low temperature, e.g., no more than 10° C., in comparison with the room temperature of WO2001014379 and WO1999016742. As shown in Table 1 shown below, the inventors of the present invention unexpectedly discovered that impurities can be reduced or minimized by conducting the reaction at a low temperature. As noted above, after the reaction step, the low temperature is preferably maintained during the steps of adjusting pH and adding anti-solvent. • 2) The anti-solvent is preferably added before adjusting the pH value. The inventors unexpectedly discovered that by doing so, the mixture can be diluted by the addition of the anti-solvent before the adjusting step, therefore minimizing local heat effect and formation of impurities. In comparison, WO2001014379 discloses adjusting the pH value before the addition of an anti-solvent. • 3) In accordance with the present invention, the compound of formula (II) can be converted to a pemetrexed salt (e.g., at a pH of 6.5 to 9.5). In contrast, the process of WO1999016472 comprises making pemetrexed free form first (at a pH of about 3), and then converting the free form to a salt (at a pH of about 6.5 to 9.5). The process of the present invention is simpler and more convenient. • 4) In accordance with an embodiment of the present invention, the crude pemetrexed salt may be crystallized at a room temperature; whereas in accordance with WO2001014379, the crystallizing is conducted at about 70° C. The cooling, heating, and adjusting pH steps of WO2001014379 may be avoided in accordance with the embodiment of the present invention. The process of the present invention can save workup procedures and has better control of impurity.

In the case of Nc1nc2[nH]cc(CCc3ccc(C(=O)N[C@@H](CCC(=O)O)C(=O)O)cc3)c2c(=O)[nH]1 [pemetrexed disodium, L-Glutamic acid, N-[4-[2-(2-amino-4,7-dihydro-4-oxo-1H-pyrrolo[2,3-d]pyrimidin-5-yl)ethyl]benzoyl]-, disodium salt], the “content of impurity based on HPLC spectra's % Area” value (“content … on HPLC spectra's % Area” below) (5 °C, 1 hr) is reported as 0.012%, the “content … on HPLC spectra's % Area” value (5 °C, 2 hr) is reported as 0.013% and the “content … on HPLC spectra's % Area” value (5 °C, 4 h) is reported as 0.035%. The “content … on HPLC spectra's % Area” value (5 °C, 6 hr) was 0.066%, the “content … on HPLC spectra's % Area” value (10 °C, 1 hr) was 0.051% and the “content … on HPLC spectra's % Area” value (10 °C, 2 hr) was 0.053%. The “content … on HPLC spectra's % Area” value (10 °C, 4 h) was 0.070%, the “content … on HPLC spectra's % Area” value (10 °C, 6 hr) was 0.075% and the “content … on HPLC spectra's % Area” value (15 °C, 1 hr) was 0.076%. For the same molecule, the “content … on HPLC spectra's % Area” value (15 °C, 2 hr) was 0.085%, the “content … on HPLC spectra's % Area” value (15 °C, 4 h) was 0.110% and the “content … on HPLC spectra's % Area” value (15 °C, 6 hr) was 0.123%.
